In publication PMC3261141, “Largazole and Its Derivatives Selectively Inhibit Ubiquitin Activating Enzyme (E1)” (PLoS ONE, 2012) one finds IC50 data, which are given here for three compounds.

Structures are written as SMILES.

For assay [1], the target named is T1, ubiquitin-activating enzyme E1 (UBA1) (Homo sapiens, UniProt P22314).
T1 construct: recombinant human UBA1, GST tag removed by thrombin
T1 sequence (P22314 2-1058): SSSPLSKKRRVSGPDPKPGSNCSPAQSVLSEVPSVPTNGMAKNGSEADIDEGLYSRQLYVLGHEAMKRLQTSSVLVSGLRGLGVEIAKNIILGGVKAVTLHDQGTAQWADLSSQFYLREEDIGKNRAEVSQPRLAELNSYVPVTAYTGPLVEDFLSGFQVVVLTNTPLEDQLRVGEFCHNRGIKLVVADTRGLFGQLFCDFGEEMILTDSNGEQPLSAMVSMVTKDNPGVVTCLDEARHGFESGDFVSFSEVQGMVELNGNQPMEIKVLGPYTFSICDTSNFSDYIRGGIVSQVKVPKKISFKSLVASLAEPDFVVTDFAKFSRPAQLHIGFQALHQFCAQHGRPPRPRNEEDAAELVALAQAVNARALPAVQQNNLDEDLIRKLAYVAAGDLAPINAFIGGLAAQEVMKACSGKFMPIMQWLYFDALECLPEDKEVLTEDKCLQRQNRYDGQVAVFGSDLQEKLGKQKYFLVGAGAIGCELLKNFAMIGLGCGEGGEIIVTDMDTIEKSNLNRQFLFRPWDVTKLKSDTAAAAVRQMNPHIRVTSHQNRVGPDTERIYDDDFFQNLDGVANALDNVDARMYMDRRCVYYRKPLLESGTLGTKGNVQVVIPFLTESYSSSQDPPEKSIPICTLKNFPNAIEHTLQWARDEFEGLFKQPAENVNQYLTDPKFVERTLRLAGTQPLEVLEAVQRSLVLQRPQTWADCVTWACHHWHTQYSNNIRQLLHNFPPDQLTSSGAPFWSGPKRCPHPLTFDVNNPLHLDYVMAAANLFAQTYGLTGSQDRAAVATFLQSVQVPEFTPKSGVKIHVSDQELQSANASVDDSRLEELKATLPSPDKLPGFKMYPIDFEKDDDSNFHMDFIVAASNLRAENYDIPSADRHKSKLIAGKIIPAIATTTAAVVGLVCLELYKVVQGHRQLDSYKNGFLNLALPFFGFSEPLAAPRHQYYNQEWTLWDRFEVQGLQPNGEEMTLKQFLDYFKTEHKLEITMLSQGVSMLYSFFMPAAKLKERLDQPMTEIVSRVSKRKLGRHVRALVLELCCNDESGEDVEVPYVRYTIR
Put plainly: E1-ubiquitin thioester gel assay with fluorescein-ubiquitin. The format is biochemical.

Assay [2] concerns the target T1, ubiquitin-activating enzyme E1 (UBA1). Put plainly: thioester gel assay; PPi:ATP and AMP:ATP exchange assays. The assay is classed as biochemical.

Consider `CCCCCCCC(=O)OCC/C=C/[C@@H]1CC(=O)NCc2nc(cs2)C2=N[C@@](C)(CS2)C(=O)N[C@@H](C(C)C)C(=O)O1` [E, Largazole ester], for which, in assay [1], the IC50 (as a rule, the concentration that inhibits the measured activity by half) is about 25 µM.

As to `CCCCCCCC(=O)CCC/C=C/[C@@H]1CC(=O)NCc2nc(cs2)C2=N[C@@](C)(CS2)C(=O)N[C@@H](C(C)C)C(=O)O1` [K, Largazole ketone], the concentration for half-maximal inhibition (IC50) in assay [2] was about 30 µM.

`CCCCCCCC(=O)SCC/C=C/[C@@H]1CC(=O)NCc2nc(cs2)C2=N[C@@](C)(CS2)C(=O)N[C@@H](C(C)C)C(=O)O1` [L, Largazole]: the IC50 in assay [1] is about 29 µM.
